ChEMBL document CHEMBL5053536, “Discovery of Quinazoline-2,4(1H,3H)-dione Derivatives Containing 3-Substituted Piperizines as Potent PARP-1/2 Inhibitors─Design, Synthesis, In Vivo Antitumor Activity, and X-ray Crystal Structure Analysis” (J Med Chem, 2021)
Calls of active or inactive are those of the source. The rule behind the calls is not given here.

Key:
[1] = MRT(0 to t) in Beagle dog at 20 mg/kg, po measured upto 24 hrs by LC-MS/MS analysis; assay type: ADME, organism-based, Canis lupus familiaris; conditions: in vivo
[2] = target: T1, Poly [ADP-ribose] polymerase 1 (Homo sapiens, UniProt P09874); experiment: Binding affinity to recombinant human PARP1 assessed as dissociation half life by SPR assay
[3] = AUC(0 to infinity) in Beagle dog at 0.4 mg/kg, iv measured upto 24 hrs by LC-MS/MS analysis; assay type: ADME, organism-based, Canis lupus familiaris; set-up: dose 0.4 mg/kg, time < 24 hrs, route iv; conditions: in vivo
[4] = Half life in Sprague-Dawley rat at 20 mg/kg, po measured upto 24 hrs by LC-MS/MS analysis; assay type: ADME, organism-based; conditions: in vivo
[5] = AUC(0 to infinity) in Beagle dog at 20 mg/kg, po measured upto 24 hrs by LC-MS/MS analysis; assay type: ADME, organism-based, Canis lupus familiaris; set-up: dose 20 mg/kg, time < 24 hrs, route po; conditions: in vivo
MX1 [6] = experiment: Antitumor activity against human MX1 cells xenografted in athymic nu/nu mouse assessed as tumor growth inhibition at 12.5 mg/kg, po administered once daily for 5 days and measured on day 17 in presence of 50 mg/kg TMZ; assay type: functional; conditions: MX1, 408 h, time 17 day, read-out: TGI
[7] = Half life in Beagle dog at 20 mg/kg, po measured upto 24 hrs by LC-MS/MS analysis; assay type: ADME, organism-based, Canis lupus familiaris; conditions: in vivo
T98G [8] = experiment: Inhibition of PARP1/2-mediated DNA repair in human T98G cells assessed as reduction in PAR formation at 1 to 10 uM after 24 hrs in presence of TMZ by Western blot analysis; assay type: cell-based; conditions: dose 1-10 µM
U-87 MG [9] = experiment: Antitumor activity against human U-87MG cells xenografted in BALB/c mouse assessed as tumor growth inhibition at 25 mg/kg, po administered once daily for 5 days and measured upto 32 days in presence of 30 mg/kg TMZ by MRI scanner; assay type: functional, U-87MG ATCC; conditions: 768 h, time <= 32 day, read-out: TGI
MDA-MB-436 = experiment: Antitumor activity against human MDA-MB-436 cells xenografted in po dosed athymic nu/nu mouse assessed as tumor growth inhibition administered once daily for 17 days; assay type: functional, organism-based; conditions: time 17.0 day
[10] = Cmax in Sprague-Dawley rat at 20 mg/kg, po measured upto 24 hrs by LC-MS/MS analysis; assay type: ADME, organism-based; set-up: time < 24 hrs, dose 20 mg/kg, route po; conditions: in vivo
T98G [11] = experiment: Cytotoxicity against human T98G cells assessed as reduction in cell viability at 5 to 10 uM incubated for 72 hrs in presence of TMZ by MTT assay; assay type: functional, cell-based; conditions: dose 5-10 µM
U-87 MG [12] = experiment: Antitumor activity against human U-87MG cells xenografted in BALB/c mouse assessed as reduction in tumor volume at 25 mg/kg, po administered once daily for 5 days and measured on day 8 in presence of 30 mg/kg TMZ by MRI scanner (reference value: 202 +/- 120.4 mm3); assay type: functional, U-87MG ATCC; conditions: time 8 day
[13] = AUC(0 to t) in Sprague-Dawley rat at 20 mg/kg, po measured upto 24 hrs by LC-MS/MS analysis; assay type: ADME, organism-based; set-up: time < 24 hrs, dose 20 mg/kg, route po; conditions: in vivo
MX1 [14] = experiment: Antitumor activity against human MX1 cells xenografted in athymic nu/nu mouse assessed as tumor growth inhibition at 25 mg/kg, po administered once daily for 5 days and measured on day 17 in presence of 50 mg/kg TMZ; assay type: functional; conditions: Mus musculus, MX1, 408 h, time 17 day, read-out: TGI
U-251 [15] = experiment: Inhibition of PARP1/2-mediated DNA repair in human U-251 cells assessed as increase in […] expression at 1 to 10 uM after 24 hrs in absence of TMZ by Western blot analysis; assay type: cell-based; conditions: dose 1-10 µM
[16] = target: T1, Poly [ADP-ribose] polymerase 1; experiment: Inhibition of recombinant human PARP1 using NAD+ as substrate incubated for 1 hr by ELISA
[17] = Cmax in Beagle dog at 0.4 mg/kg, iv measured upto 24 hrs by LC-MS/MS analysis; assay type: ADME, organism-based, Canis lupus familiaris; set-up: time < 24 hrs, dose 0.4 mg/kg, route iv; conditions: in vivo
[18] = target: Poly [ADP-ribose] polymerase 2 (Homo sapiens, UniProt Q9UGN5); experiment: Binding affinity to recombinant human PARP2 assessed as dissociation half life by SPR assay
U-87 MG [19] = experiment: Antitumor activity against human U-87MG cells xenografted in BALB/c mouse assessed as T/C ratio at 25 mg/kg, po administered once daily for 5 days and measured upto 32 days in presence of 30 mg/kg TMZ by MRI scanner; assay type: functional, U-87MG ATCC; conditions: time <= 32 day
Mus musculus [20] = experiment: Toxicity in BALB/c mouse xenografted with human U-87MG cells assessed as effect on body weight at 50 mg/kg, po administered once daily for 5 days and measured on day 8 (reference value: 18.2 +/- 0.6 g); assay type: organism-based; conditions: in vivo, 192 h, time 8 day
[21] = Cmax in Beagle dog at 20 mg/kg, po measured upto 24 hrs by LC-MS/MS analysis; assay type: ADME, organism-based, Canis lupus familiaris; set-up: time < 24 hrs, dose 20 mg/kg, route po; conditions: in vivo
[22] = MRT(0 to t) in Sprague-Dawley rat at 20 mg/kg, po measured upto 24 hrs by LC-MS/MS analysis; assay type: ADME, organism-based; conditions: in vivo
[23] = Tmax in Beagle dog at 20 mg/kg, po measured upto 24 hrs by LC-MS/MS analysis; assay type: ADME, organism-based, Canis lupus familiaris; conditions: in vivo
[24] = AUC(0 to infinity) in Sprague-Dawley rat at 20 mg/kg, po measured upto 24 hrs by LC-MS/MS analysis; assay type: ADME, organism-based; set-up: time < 24 hrs, dose 20 mg/kg, route po; conditions: in vivo
U-251 [25] = experiment: Inhibition of PARP1/2-mediated DNA repair in human U-251 cells assessed as reduction in PAR formation at 1 to 10 uM after 24 hrs in absence of TMZ by Western blot analysis; assay type: cell-based; conditions: dose 1-10 µM
Mus musculus [26] = experiment: Toxicity in athymic nu/nu mouse xenografted with human MX1 cells assessed as reduction in body weight at 12.5 to 25 mg/kg, po administered once daily for 5 days and measured upto day 17; assay type: organism-based; conditions: in vivo, 408 h, dose 12.5-25 mg/kg, time < 17 day
[27] = AUC(0 to infinity) in BALB/c mouse at 25 mg/kg, po measured upto 24 hrs by LC-MS/MS analysis; assay type: ADME, organism-based; set-up: time < 24 hrs, dose 25 mg/kg, route po; conditions: in vivo
[28] = Cmax in BALB/c mouse at 25 mg/kg, po measured upto 24 hrs by LC-MS/MS analysis; assay type: ADME, organism-based; set-up: time < 24 hrs, dose 25 mg/kg, route po; conditions: in vivo
U-251 [29] = experiment: Inhibition of PARP1/2-mediated DNA repair in human U-251 cells assessed as reduction in PAR formation at 1 to 10 uM after 24 hrs in presence of TMZ by Western blot analysis; assay type: cell-based; conditions: dose 1-10 µM
[30] = Drug concentration in Sprague-Dawley rat brain assessed as brain blood ratio measured upto 24 hrs by LC-MS/MS analysis; assay type: ADME, organism-based; conditions: read-out: BBR
Mus musculus [31] = experiment: Toxicity in BALB/c mouse xenografted with human U-87MG cells assessed as effect on body weight at 25 mg/kg, po administered once daily for 5 days and measured on day 8 in presence of 30 mg/kg TMZ (reference value: 18.8 +/- 0.7 g); assay type: organism-based; conditions: in vivo, 192 h, time 8 day
U-87 MG [32] = experiment: Antitumor activity against human U-87MG cells xenografted in BALB/c mouse assessed as tumor growth inhibition at 50 mg/kg, po administered once daily for 5 days and measured upto 32 days in presence of 30 mg/kg TMZ by MRI scanner; assay type: functional, U-87MG ATCC; conditions: 768 h, time <= 32 day, read-out: TGI
U-87 MG [33] = experiment: Cytotoxicity against human U87MG cells assessed as reduction in cell viability at 5 to 10 uM incubated for 72 hrs in presence of TMZ by MTT assay; assay type: functional, cell-based; conditions: U-87MG ATCC, dose 5-10 µM

T1 sequence (P09874 whole entry): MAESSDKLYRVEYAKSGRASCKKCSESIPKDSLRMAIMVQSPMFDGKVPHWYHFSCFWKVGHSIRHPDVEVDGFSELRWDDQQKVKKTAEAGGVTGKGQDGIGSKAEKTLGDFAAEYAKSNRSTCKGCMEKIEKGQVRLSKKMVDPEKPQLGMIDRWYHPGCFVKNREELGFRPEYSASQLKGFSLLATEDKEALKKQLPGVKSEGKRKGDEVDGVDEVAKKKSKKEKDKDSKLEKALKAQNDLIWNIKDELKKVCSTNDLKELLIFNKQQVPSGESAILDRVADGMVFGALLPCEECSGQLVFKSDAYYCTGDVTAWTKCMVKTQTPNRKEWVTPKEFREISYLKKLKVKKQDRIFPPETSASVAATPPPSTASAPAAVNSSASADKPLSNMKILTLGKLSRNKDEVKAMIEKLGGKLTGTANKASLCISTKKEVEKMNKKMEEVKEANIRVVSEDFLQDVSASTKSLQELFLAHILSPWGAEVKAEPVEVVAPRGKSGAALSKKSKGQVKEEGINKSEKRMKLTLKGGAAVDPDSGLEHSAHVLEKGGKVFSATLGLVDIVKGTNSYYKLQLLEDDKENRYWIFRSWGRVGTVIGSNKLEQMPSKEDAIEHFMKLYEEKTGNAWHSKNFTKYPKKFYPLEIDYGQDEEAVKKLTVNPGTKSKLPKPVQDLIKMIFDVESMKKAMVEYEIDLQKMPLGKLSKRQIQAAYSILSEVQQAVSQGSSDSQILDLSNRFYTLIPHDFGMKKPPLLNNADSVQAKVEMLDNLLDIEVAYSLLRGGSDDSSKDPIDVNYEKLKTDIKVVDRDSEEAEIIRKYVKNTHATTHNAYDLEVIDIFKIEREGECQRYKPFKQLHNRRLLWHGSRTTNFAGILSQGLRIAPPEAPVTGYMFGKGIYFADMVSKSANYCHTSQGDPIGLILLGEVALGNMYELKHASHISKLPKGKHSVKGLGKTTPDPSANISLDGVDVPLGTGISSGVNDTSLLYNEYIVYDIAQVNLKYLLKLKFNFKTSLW
Chain of Poly [ADP-ribose] polymerase 2 (Q9UGN5 whole entry): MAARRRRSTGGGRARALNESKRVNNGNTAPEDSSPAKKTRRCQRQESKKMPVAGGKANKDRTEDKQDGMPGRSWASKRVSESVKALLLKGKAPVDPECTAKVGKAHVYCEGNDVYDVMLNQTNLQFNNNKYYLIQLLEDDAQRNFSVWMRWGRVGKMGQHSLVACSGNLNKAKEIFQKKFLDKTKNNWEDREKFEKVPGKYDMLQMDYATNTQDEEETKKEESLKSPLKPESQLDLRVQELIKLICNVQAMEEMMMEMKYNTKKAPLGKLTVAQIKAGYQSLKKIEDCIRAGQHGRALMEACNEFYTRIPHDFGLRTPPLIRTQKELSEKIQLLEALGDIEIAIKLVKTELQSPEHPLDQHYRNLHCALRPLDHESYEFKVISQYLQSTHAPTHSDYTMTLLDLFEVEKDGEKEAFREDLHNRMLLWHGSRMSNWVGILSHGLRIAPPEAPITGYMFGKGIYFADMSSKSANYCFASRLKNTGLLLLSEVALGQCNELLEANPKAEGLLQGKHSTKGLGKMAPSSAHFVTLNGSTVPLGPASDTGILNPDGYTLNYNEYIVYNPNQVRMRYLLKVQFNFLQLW

## CC[C@@H]1CN(C(=O)c2cc(Cn3c(=O)[nH]c(=O)c4ccccc43)ccc2F)CCN1CC
[1]
  MRT last at 24 h: 4.58 h
[2]
  T1/2: 1.26 h
[3]
  AUC(0-inf): 1430 ng·h/mL
[4]
  half-life: 0.8 h
[5]
  AUC(0-inf): 34600 ng·h/mL
MX1 [6]
  inhibition in vivo at 12.5 mg/kg: 71.5%
[7]
  half-life: 3.78 h
T98G [8]
  inhibition: Active
U-87 MG [9]
  inhibition in vivo at 25 mg/kg: 87.9%
MDA-MB-436
  Activity: Dose-dependent effect
[10]
  Cmax: 208 ng/mL
T98G [11]
  Activity: Active
U-87 MG [12]
  Activity: 0 mm3
[13]
  AUC(0-t) at 24 h: 330 ng·h/mL
MX1 [14]
  inhibition in vivo at 25 mg/kg: 86.8%
U-251 [15]
  inhibition: Active
[16]
  IC50: 510 pM
[17]
  Cmax: 1250 ng/mL
[18]
  T1/2: 5.48 min
U-87 MG [19]
  T/C: 12.1%
Mus musculus [20]
  Activity: 15.3 g
[21]
  Cmax: 6440 ng/mL
[22]
  MRT last at 24 h: 1.24 h
[23]
  Tmax: 0.5 h
[24]
  AUC(0-inf): 338 ng·h/mL
U-251 [25]
  inhibition: Active
Mus musculus [26]
  Activity: Non-Toxic
[27]
  AUC(0-inf): 593 ng·h/mL
[28]
  Cmax: 399 ng/mL
U-251 [29]
  inhibition: Active
[30]
  Kp at 24 h: 0.1
Mus musculus [31]
  Activity: 18.2 g
U-87 MG [32]
  inhibition in vivo at 50 mg/kg: 85.9%
U-87 MG [33]
  Activity: Active
